# From patent US11518783B2, “Peptides having tetrahedral mimicking groups as inhibitors of rhomboid proteases” (priority 2016, dated 2022)
# Peptide text beside a SMILES is read from it. * marks the point of attachment. CHO = C-terminal aldehyde in place of the boronate, O=C*; boroAla = C[C@H](N*)B(O)O
# Assays:
# PfROM4 = test: Heterologous cell-based rhomboid cleavage assay in co-transfected HEK293 cells, EBA175 cleavage by PfROM4; design: species or system P. falciparum; conditions: western of conditioned media
# Excerpt: (§1) FIG. 4A-F illustrates RiBn is a non-toxic, selective inhibitor of only PfROM4. A. Chemical structure of one embodiment of RiBn, a peptide of 10 aa with boronate warhead (SEQ ID NO: 3). Ac denotes an N-terminal acetyl moiety, while the C-terminal boronate warhead is on the right. B. Western blot analysis of EBA175 and AMA1 cleavage by PfROM4 in a heterologous cleavage assay. Co-transfected HEK293 cells were conditioned in the presence of absence of the indicated concentrations of RiBn. Cells transfected with AMA1 were conditioned in the presence or absence of the metalloprotease inhibitor (WI) BB-94 to reduce background cleavage by endogenous cellular proteases. N-terminal cleavage products were released into media (anti-GFP, top panels). Lysates were probed for expression of substrate (anti-GFP, middle panel) and enzyme (anti-HA, bottom panel). Quantification of PfROM4 inhibition by RiBn (right panel, mean±s.e.m.). […] Inhibition was analyzed in three independent biological experiments. […] Flow cytometry analysis (calcein AM fluorescence) of the same cells (right panels). […] For data in D and E, toxicity analyses were conducted in three independent biological experiments (once for each assay readout). […]
# (§2) Cleavage of substrates and the activity of enzymes was determined in a slightly modified heterologous cleavage assay. […] Two-color quantitative westerns were converted to greyscale.
# [1] = system: P. falciparum 3d7 parasites; test: P. falciparum growth (parasitemia) on human erythrocytes, flow cytometry with acridine orange; assay type: cell-based; conditions: for inhibition of parasite growth: P. falciparum on human red blood cells
# Procedure: (§3) Inhibitor potency was verified in three independent biological experiments. […] Quantification was conducted once. C.
# FIG. 6A-6C illustrates RiBn cures blood stage cultures of malaria by iteratively inhibiting parasite invasion and retarding growth. A. Blood stage cultures containing 1% well synchronized schizont stage parasitized erythrocytes were cultured in the presence or absence of 0.3 mM RiB, as indicated, and analyzed at various time points via flow cytometry (acridine orange, top panels) and fluorescent microscopy (acridine orange staining, bottom panels). After 18 hours of culturing, RiBn was washed out of one replicate of the RiBn treated cultures and monitored as above, as indicated. […] C. Quantification of absolute parasitemia at various time points in blood stage parasite cultures treated with the indicated concentrations of RiBn. In a-c, growth defect was confirmed in three independent biological experiments, while the parallel washout was conducted once and is shown.
# (§4) Asexual P. falciparum 3d7 parasites (kind gift of Dr David Sullivan, Johns Hopkins School of Public Health) were cultured in human erythrocytes (O-donor, purchased from Interstate Blood Bank, Inc.) under standard conditions. Sorbitol synchronization was performed ˜1/week or as needed for experiments. For invasion assays, schizont-stage parasites were magnetically purified as previously described (MACS Miltenyi Biotec) and incubated at the appropriate parasitemia (0.2% for dose-response curves) in a 96-well plate in the presence or absence of the peptide-warhead inhibitors at 1.5% hematocrit. Flow cytometry analysis for absolute parasitemia determination and growth characterization was performed by removing a small volume of culture, washing cells in 1×PBS, resuspending them in 1×PBS containing 0.1 μg/mL acridine orange and monitoring FL1/FL3 fluorescence on a FACSCalibur instrument (BD Biosciences). Methanol-fixed, acridine orange stained parasitized erythrocytes were imaged on an inverted fluorescence microscope (Nikon) with bandpass filters. Images were overlaid in Photoshop CC (Adobe). All flow cytometry data were analyzed in FlowJo.
# PfROM1 = test: Heterologous cell-based rhomboid cleavage assay, PfROM1; design: species or system P. falciparum; conditions: highest RiBn concentration, transfection-based assay
# Excerpt: as §1, §2
# human rhomboid enzyme = biological target: T1, human rhomboid enzyme (Homo sapiens, UniProt Q9NX52); test: Heterologous cell-based rhomboid cleavage assay, human rhomboid enzyme; conditions: transfection-based assay, analyzed in parallel
# T1 construct: expressed in transfected cells; host or cells: HEK293T (ATCC CRL-11268), pcDNA3.1
# T1 sequence (Q9NX52 1-303): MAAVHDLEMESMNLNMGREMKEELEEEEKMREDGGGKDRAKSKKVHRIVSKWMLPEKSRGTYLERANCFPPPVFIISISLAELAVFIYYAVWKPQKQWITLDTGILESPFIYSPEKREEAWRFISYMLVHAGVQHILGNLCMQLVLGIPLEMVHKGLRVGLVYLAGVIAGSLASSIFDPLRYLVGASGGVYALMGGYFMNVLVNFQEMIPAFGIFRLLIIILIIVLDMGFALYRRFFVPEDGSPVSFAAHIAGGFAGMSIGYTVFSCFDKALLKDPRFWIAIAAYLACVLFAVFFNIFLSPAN
# Excerpt: as §1, §2
# [2] = system: other five rhomboid proteases known to reside on the cell surface; test: Heterologous cell-based rhomboid cleavage assay, other cell surface rhomboid enzymes and their substrates
# Excerpt: as §1, §2
# [3] = LIVE/DEAD viability of RiBn-treated HEK293 cells (fluorescence microscopy and flow cytometry); assay type: cell-based, human; conditions: human, highest RiBn dose, ~24 hours, calcein AM, read-out: cell viability by flow cytometry
# Excerpt: as §1, with “Lysates were probed for expression of substrate (anti-GFP, middle panel) and enzyme (anti-HA, bottom panel).” left out
# (§5) Cell viability of RiBn-treated HEK293 cells was determined with a LIVE/DEAD Viability/Cytotoxicity Kit (Molecular Probes). Calcein AM and ethidium homodimer-1 stained cells were imaged on an inverted fluorescence microscope (Nikon) with the appropriate bandpass filters. […]
# HEK293 cells [4] = test: as above; assay type: cell-based, human; conditions: highest concentrations
# Excerpt: as §1, with “Lysates were probed for expression of substrate (anti-GFP, middle panel) and enzyme (anti-HA, bottom panel).” left out
# as §5
# HEK293 cells [5] = test: Cell cycle analysis of HEK293 cells by flow cytometry (propidium iodine); assay type: cell-based, human; conditions: 24 hours
# P. falciparum merozoites = test: P. falciparum invasion assay with synchronized schizont-stage parasites; assay type: cell-based
# Procedure: as §3, §4
# human erythrocytes = conditions: erythrocytes cultured ~18 hours with RiBn
# Procedure: B. Bright-field microscopy (top panel) and flow cytometry analysis (Forward Scatter vs Side Scatter, bottom panel) of erythrocytes cultured in the presence or absence of RiBn for ˜18 hours. Quantification was conducted once.
# GlpG = GlpG (Escherichia coli, UniProt P09391); conditions: GlpG in living E. coli cells, side-by-side comparison
# Sequence of GlpG (P09391 whole entry): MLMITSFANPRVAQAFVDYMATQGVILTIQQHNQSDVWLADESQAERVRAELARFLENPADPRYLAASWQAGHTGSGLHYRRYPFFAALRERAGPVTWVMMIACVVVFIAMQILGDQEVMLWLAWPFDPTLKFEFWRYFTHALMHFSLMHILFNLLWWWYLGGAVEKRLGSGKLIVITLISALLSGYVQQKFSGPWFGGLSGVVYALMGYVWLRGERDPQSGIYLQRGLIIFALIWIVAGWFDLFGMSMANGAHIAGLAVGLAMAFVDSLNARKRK
# Procedure: F. Inhibition of endogenous GlpG activity in living E. coli cells grown in liquid culture. Δ is the negative control in which GlpG was deleted from the E. coli genome. Peptide inhibitors were added at the indicated concentrations directly to growing cultures. Shown are quantitative infrared anti-flag westerns, with the top band being the TatA-Flag uncut substrate, and the lower band being the cut product. Quantification of cleavage was used to calculate the EC50 concentrations (graph on right, mean±s.e.m.). Inhibition was analyzed in three independent biological experiments, each with a full spectrum of concentrations per compound.
# Dose-response curves were analyzed in the R environment. Curve fitting and graphing was performed with the DRC package using data appropriate models. EC50 values are depicted along with the standard error of the fit.
Molecule,inhibition of EBA175 processing by PfROM4 (PfROM4),inhibition of parasite growth [1],inhibition of PfROM1 (PfROM1),inhibition of the human rhomboid enzyme (human rhomboid enzyme),"effect on cell viability or function (translation, glycosylation, trafficking, secretion of substrates) ([2]; transfected HEK293 cells, highest RiBn concentrations)","inhibition of the other five cell surface rhomboid proteases ([2]; transfection-based assay, analyzed in parallel)",viability [3] [%],cell viability in fluorescence-based live/dead cell assay (HEK293 cells [4]),"adherence, growth, or cell cycle distribution of treated versus untreated cells (HEK293 cells [5])",effect on other parasite stages including egress ([1]; delayed parasites through lifecycle stages),"growth of parasites that invaded in presence of RiBn ([1]; subsequent time points, versus vehicle-treated controls)","effect of washing out RiBn after the first round of invasion ([1]; washout after 18 hours, 0.3 mM)","maximal inhibition of merozoite invasion (P. falciparum merozoites; first round of infection, flow cytometry) [%]","inhibition of merozoite invasion of red blood cells (P. falciparum merozoites; synchronized cultures, ~24 hours)",host cell (red blood cell) viability (human erythrocytes),increase in potency relative to the aldehyde of the same tetrapeptide (GlpG) [fold],increase in potency relative to the chloromethylketone of the same tetrapeptide (GlpG) [fold]
"peptide-aldehyde: same peptide sequence as RiBn but replacing the boronate with an aldehyde moiety (Ac-KRFRSMQYSA-{CHO}; also: aldehyde moiety replacing the boronate, place not given here) [reference compound]",completely abolished PfROM4 inhibition,abolished inhibition,–,–,–,–,–,–,–,–,–,–,–,–,–,–,–
CSCC[C@H](NC(=O)[C@H](CO)NC(=O)[C@H](CCCNC(=N)N)NC(=O)[C@H](Cc1ccccc1)NC(=O)[C@H](CCCNC(=N)N)NC(=O)[C@H](CCCCN)NC(C)=O)C(=O)N[C@@H](CCC(N)=O)C(=O)N[C@@H](Cc1ccc(O)cc1)C(=O)N[C@@H](CO)C(=O)N[C@@H](C)B(O)O [RiBn] (Ac-KRFRSMQYS-boroAla),inhibited EBA175 processing by PfROM4 in a dose-dependent manner,dose-dependent inhibition of parasite growth,completely unaffected,no inhibitory effect,no apparent effect on cell viability or function,no inhibitory effect,92.4,no change in cell viability,no apparent change,minimally or not affected,grew considerably slower than vehicle-treated controls,rescued parasite growth,~50,dose-dependent inhibition of merozoite invasion,not affecting host cell viability,–,–
Ac-VRMA-B(OH)2,–,–,–,–,–,–,–,–,–,–,–,–,–,–,–,> 100,> 400
